Results from US20260070903A1, “NOVEL PYRIDO[3,4-D]PYRIMIDIN-8-ONE DERIVATIVE HAVING PROTEIN KINASE INHIBITORY ACTIVITY, AND PHARMACEUTICAL COMPOSITION FOR PREVENTING, ALLEVIATING, OR TREATING CANCER, COMPRISING SAME” (KOREA INSTITUTE OF SCIENCE AND TECHNOLOGY, priority 2019, published 2026).

What was measured:
Ba/F3 (N-Ras G12D) = experiment: Proliferation inhibitory activity, Ba/F3 N-Ras G12D; type: cell-based; settings: Mus musculus, BaF3
Protocol: The inhibitory activities of the compounds of the present disclosure against the proliferation of the mt-NRAS (G12D) Ba/F3 and OCI-AML3 (mt-NRAS) cell lines were measured and the GI50 values thereof were calculated.

ABL1 = ABL1 (Homo sapiens, UniProt P00519); experiment: Kinase panel biochemical assay, ABL1; settings: single concentration of 1 μM, read-out: percent inhibition of kinase
Protocol: (§1) As a test compound, Compound No. 55 was used. The percent inhibition of each kinase when treated with the test compound at a single concentration of 1 μM was measured, and the residual enzyme activity values (%) of the kinases were calculated. Kinases whose calculated residual enzyme activity values (%) was 30% or less (i.e., kinases inhibited by 70% or more) are as follows: […]

ACK1 = ACK1 (Homo sapiens, UniProt Q07912); experiment: Kinase panel biochemical assay, ACK1; settings: single concentration of 1 μM, read-out: percent inhibition of kinase
Protocol: as §1

ARAF = ARAF (Homo sapiens, UniProt P10398); experiment: Kinase panel biochemical assay, ARAF; settings: single concentration of 1 μM, read-out: percent inhibition of kinase
Protocol: as §1

BLK = BLK (Homo sapiens, UniProt P51451); experiment: Kinase panel biochemical assay, BLK; settings: single concentration of 1 μM, read-out: percent inhibition of kinase
Protocol: as §1

BRK = BRK (Homo sapiens, UniProt Q13882); experiment: Kinase panel biochemical assay, BRK; settings: single concentration of 1 μM, read-out: percent inhibition of kinase
Protocol: as §1

c-Src = c-Src (Homo sapiens, UniProt P12931); experiment: Kinase panel biochemical assay, c-Src; settings: single concentration of 1 μM, read-out: percent inhibition of kinase
Protocol: as §1

DDR2 = DDR2 (Homo sapiens, UniProt Q16832); experiment: Kinase panel biochemical assay, DDR2; settings: single concentration of 1 μM, read-out: percent inhibition of kinase
Protocol: as §1

EPHA1 = EPHA1 (Homo sapiens, UniProt P21709); experiment: Kinase panel biochemical assay, EPHA1; settings: single concentration of 1 μM, read-out: percent inhibition of kinase
Protocol: as §1

EPHA7 = EPHA7 (Homo sapiens, UniProt Q15375); experiment: Kinase panel biochemical assay, EPHA7; settings: single concentration of 1 μM, read-out: percent inhibition of kinase
Protocol: as §1

EPHB1 = EPHB1 (Homo sapiens, UniProt P54762); experiment: Kinase panel biochemical assay, EPHB1; settings: single concentration of 1 μM, read-out: percent inhibition of kinase
Protocol: as §1

EPHB3 = EPHB3 (Homo sapiens, UniProt P54753); experiment: Kinase panel biochemical assay, EPHB3; settings: single concentration of 1 μM, read-out: percent inhibition of kinase
Protocol: as §1

FGFR1 = FGFR1 (Homo sapiens, UniProt P11362); experiment: Kinase panel biochemical assay, FGFR1; settings: single concentration of 1 μM, read-out: percent inhibition of kinase
Protocol: as §1

FGFR2 = FGFR2 (Homo sapiens, UniProt P21802); experiment: Kinase panel biochemical assay, FGFR2; settings: single concentration of 1 μM, read-out: percent inhibition of kinase
Protocol: as §1

FGFR4 = FGFR4 (Homo sapiens, UniProt P22455); experiment: Kinase panel biochemical assay, FGFR4; settings: single concentration of 1 μM, read-out: percent inhibition of kinase
Protocol: as §1

FMS = FMS (Homo sapiens, UniProt P07333); experiment: Kinase panel biochemical assay, FMS; settings: single concentration of 1 μM, read-out: percent inhibition of kinase
Chain of FMS (P07333 20-972): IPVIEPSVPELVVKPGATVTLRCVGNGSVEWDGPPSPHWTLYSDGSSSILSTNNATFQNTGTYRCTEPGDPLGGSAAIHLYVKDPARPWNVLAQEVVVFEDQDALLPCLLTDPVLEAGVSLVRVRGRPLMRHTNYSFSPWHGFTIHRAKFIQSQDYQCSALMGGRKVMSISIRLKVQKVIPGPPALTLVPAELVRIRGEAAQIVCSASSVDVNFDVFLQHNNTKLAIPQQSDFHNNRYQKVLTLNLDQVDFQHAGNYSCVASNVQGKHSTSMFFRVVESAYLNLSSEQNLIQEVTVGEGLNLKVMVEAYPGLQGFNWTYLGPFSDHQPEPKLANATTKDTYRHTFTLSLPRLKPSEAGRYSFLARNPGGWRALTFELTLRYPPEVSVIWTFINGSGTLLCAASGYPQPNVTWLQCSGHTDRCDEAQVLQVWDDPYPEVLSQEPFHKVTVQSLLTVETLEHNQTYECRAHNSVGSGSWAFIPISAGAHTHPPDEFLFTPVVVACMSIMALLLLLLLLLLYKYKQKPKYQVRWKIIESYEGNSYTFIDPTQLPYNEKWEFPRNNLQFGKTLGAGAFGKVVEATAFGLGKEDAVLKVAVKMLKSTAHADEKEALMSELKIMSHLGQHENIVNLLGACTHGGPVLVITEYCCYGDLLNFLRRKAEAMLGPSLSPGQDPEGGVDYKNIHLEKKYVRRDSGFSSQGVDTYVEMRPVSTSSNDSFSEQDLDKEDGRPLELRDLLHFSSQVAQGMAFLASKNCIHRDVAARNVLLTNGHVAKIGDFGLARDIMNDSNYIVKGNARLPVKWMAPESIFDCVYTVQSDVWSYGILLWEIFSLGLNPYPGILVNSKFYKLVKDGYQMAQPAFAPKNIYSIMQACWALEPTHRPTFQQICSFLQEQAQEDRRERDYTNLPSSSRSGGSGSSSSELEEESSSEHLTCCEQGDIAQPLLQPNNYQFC
Protocol: as §1

FYN = FYN (Homo sapiens, UniProt P06241); experiment: Kinase panel biochemical assay, FYN; settings: single concentration of 1 μM, read-out: percent inhibition of kinase
Protocol: as §1

HCK = HCK (Homo sapiens, UniProt P08631); experiment: Kinase panel biochemical assay, HCK; settings: single concentration of 1 μM, read-out: percent inhibition of kinase
Protocol: as §1

JAK1 = JAK1 (Homo sapiens, UniProt P23458); experiment: Kinase panel biochemical assay, JAK1; settings: single concentration of 1 μM, read-out: percent inhibition of kinase
Protocol: as §1

KHS = KHS (Homo sapiens, UniProt Q9Y4K4); experiment: Kinase panel biochemical assay, KHS; settings: single concentration of 1 μM, read-out: percent inhibition of kinase
Protocol: as §1

LCK = LCK (Homo sapiens, UniProt P06239); experiment: Kinase panel biochemical assay, LCK; settings: single concentration of 1 μM, read-out: percent inhibition of kinase
Chain of LCK (P06239 whole entry): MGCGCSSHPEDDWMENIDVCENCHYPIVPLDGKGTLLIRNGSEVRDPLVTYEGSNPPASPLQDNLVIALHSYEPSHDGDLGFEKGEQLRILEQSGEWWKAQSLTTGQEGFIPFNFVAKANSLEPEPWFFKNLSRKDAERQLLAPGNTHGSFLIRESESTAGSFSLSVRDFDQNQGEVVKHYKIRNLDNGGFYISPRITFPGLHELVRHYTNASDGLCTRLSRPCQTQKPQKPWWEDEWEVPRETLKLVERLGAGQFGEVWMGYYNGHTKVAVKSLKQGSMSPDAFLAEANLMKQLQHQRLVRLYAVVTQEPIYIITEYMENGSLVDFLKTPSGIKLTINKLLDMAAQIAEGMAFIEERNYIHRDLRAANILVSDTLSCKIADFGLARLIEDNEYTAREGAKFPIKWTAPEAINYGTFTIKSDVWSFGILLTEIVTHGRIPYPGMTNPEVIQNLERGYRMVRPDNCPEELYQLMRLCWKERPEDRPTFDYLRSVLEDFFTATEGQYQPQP
Protocol: as §1

LYN = LYN (Homo sapiens, UniProt P07948); experiment: Kinase panel biochemical assay, LYN; settings: single concentration of 1 μM, read-out: percent inhibition of kinase
Protocol: as §1

LYNB = LYNB (Homo sapiens, UniProt P07948); experiment: Kinase panel biochemical assay, LYNB; settings: single concentration of 1 μM, read-out: percent inhibition of kinase
Protocol: as §1

p38a = p38a (Homo sapiens, UniProt Q16539); experiment: Kinase panel biochemical assay, p38a; settings: single concentration of 1 μM, read-out: percent inhibition of kinase
Protocol: as §1

p38b = p38b (Homo sapiens, UniProt Q15759); experiment: Kinase panel biochemical assay, p38b; settings: single concentration of 1 μM, read-out: percent inhibition of kinase
Protocol: as §1

PDGFRb = PDGFRb (Homo sapiens, UniProt P09619); experiment: Kinase panel biochemical assay, PDGFRb; settings: single concentration of 1 μM, read-out: percent inhibition of kinase
Chain of PDGFRb (P09619 33-1106): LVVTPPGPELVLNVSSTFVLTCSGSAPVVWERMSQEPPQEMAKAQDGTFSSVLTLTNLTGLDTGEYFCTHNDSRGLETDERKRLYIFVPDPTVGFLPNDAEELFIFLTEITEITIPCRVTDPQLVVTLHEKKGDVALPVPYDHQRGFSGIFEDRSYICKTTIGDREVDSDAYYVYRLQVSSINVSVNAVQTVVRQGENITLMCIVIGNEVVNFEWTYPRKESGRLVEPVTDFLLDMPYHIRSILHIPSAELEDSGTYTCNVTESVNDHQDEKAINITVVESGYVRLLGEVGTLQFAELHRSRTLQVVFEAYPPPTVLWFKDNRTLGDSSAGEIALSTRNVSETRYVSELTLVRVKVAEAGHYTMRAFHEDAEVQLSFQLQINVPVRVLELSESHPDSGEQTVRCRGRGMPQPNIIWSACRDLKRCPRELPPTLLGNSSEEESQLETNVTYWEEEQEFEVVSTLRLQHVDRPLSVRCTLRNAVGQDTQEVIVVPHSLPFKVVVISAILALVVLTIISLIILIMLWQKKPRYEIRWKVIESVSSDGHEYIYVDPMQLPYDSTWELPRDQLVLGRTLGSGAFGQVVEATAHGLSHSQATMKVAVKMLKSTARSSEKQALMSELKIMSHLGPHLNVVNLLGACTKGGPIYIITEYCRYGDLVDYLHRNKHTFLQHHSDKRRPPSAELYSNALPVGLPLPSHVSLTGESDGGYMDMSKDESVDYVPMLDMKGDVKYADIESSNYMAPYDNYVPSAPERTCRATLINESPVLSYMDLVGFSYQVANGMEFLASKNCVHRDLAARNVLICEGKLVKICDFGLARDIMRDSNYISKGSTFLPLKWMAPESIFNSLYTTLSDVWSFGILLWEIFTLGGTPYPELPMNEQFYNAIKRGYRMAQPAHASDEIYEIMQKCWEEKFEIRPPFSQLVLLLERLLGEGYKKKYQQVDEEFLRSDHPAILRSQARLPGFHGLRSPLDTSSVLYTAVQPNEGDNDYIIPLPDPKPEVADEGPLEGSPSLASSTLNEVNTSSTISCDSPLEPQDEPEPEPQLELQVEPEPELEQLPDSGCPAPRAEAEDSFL
Protocol: as §1

RAF1 = RAF1 (Homo sapiens, UniProt P04049); experiment: Kinase panel biochemical assay, RAF1; settings: single concentration of 1 μM, read-out: percent inhibition of kinase
Protocol: as §1

RIPK3 = RIPK3 (Homo sapiens, UniProt Q9Y572); experiment: Kinase panel biochemical assay, RIPK3; settings: single concentration of 1 μM, read-out: percent inhibition of kinase
Protocol: as §1

TAOK2 = TAOK2 (Homo sapiens, UniProt Q9UL54); experiment: Kinase panel biochemical assay, TAOK2; settings: single concentration of 1 μM, read-out: percent inhibition of kinase
Protocol: as §1

TIE2 = TIE2 (Homo sapiens, UniProt Q02763); experiment: Kinase panel biochemical assay, TIE2; settings: single concentration of 1 μM, read-out: percent inhibition of kinase
Chain of TIE2 (Q02763 23-1124): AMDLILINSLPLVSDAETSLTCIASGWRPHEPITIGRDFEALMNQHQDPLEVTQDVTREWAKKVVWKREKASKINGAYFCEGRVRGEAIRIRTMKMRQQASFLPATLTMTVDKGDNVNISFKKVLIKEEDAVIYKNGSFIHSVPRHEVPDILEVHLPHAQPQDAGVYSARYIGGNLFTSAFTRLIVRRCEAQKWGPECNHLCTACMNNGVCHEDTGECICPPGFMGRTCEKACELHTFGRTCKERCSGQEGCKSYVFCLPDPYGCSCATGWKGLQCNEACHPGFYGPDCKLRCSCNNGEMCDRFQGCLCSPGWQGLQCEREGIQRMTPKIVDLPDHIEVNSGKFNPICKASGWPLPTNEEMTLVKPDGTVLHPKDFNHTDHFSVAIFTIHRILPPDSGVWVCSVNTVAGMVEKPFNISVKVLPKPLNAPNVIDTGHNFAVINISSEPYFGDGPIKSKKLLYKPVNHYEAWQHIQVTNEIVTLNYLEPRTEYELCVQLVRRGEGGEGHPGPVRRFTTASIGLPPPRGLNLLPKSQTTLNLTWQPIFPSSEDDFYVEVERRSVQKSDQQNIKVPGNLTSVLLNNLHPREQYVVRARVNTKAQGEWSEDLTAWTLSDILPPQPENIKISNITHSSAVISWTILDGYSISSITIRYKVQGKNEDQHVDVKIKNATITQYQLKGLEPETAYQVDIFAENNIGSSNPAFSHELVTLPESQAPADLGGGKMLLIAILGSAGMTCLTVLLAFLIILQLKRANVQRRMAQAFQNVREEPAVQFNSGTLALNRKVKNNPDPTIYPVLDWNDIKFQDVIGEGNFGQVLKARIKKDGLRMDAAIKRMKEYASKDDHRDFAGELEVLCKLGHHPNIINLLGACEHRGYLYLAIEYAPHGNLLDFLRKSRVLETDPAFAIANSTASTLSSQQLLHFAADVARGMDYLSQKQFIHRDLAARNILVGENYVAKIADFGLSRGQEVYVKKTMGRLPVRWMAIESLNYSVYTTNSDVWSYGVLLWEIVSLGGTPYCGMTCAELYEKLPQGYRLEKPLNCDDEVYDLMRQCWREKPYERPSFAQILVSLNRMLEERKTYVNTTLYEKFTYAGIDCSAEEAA
Protocol: as §1

YES = YES (Homo sapiens, UniProt P07947); experiment: Kinase panel biochemical assay, YES; settings: single concentration of 1 μM, read-out: percent inhibition of kinase
Protocol: as §1

YSK4 = YSK4 (Homo sapiens, UniProt Q56UN5); experiment: Kinase panel biochemical assay, YSK4; settings: single concentration of 1 μM, read-out: percent inhibition of kinase
Chain of YSK4 (Q56UN5 whole entry): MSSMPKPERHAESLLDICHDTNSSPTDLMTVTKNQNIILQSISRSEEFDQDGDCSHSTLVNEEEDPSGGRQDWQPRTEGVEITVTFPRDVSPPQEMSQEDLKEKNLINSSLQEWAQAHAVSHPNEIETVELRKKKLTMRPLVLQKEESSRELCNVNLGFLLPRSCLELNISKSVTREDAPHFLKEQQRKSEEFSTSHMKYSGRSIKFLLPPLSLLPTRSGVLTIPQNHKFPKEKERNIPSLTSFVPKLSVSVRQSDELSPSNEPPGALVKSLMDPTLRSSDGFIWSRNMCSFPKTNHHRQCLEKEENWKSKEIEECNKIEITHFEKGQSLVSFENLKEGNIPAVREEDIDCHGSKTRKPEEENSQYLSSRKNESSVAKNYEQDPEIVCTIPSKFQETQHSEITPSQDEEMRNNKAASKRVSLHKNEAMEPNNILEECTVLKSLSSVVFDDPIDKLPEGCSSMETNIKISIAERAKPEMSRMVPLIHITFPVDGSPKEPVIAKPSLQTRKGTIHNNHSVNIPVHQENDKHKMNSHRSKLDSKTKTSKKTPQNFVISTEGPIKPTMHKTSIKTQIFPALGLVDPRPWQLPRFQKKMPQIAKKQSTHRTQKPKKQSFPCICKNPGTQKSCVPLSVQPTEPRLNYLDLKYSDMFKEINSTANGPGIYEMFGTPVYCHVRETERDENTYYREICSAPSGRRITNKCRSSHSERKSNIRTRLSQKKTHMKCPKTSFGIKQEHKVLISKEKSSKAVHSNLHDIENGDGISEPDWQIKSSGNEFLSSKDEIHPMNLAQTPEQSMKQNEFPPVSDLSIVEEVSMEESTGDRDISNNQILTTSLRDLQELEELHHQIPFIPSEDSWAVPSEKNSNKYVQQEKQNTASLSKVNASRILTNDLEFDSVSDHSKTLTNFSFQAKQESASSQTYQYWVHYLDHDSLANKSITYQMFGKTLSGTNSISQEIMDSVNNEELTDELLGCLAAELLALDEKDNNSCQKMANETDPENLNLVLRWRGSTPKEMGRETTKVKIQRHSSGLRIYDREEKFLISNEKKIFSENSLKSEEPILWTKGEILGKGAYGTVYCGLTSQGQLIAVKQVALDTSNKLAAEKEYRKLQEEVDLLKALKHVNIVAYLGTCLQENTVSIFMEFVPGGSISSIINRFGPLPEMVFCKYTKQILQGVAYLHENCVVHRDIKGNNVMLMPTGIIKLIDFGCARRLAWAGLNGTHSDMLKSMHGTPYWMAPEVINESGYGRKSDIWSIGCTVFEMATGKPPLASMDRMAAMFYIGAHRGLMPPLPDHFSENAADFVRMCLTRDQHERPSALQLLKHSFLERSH
Protocol: as §1

Cc1ccc(NC(=O)c2cccc(C(F)(F)F)c2)cc1-c1cc2cnc(N)nc2c(=O)[nH]1 [Compound No. 55, N-(3-(2-amino-8-oxo-7,8-dihydropyrido[3,4-d]pyrimidin-6-yl)-4-methylphenyl)-3-(trifluoromethyl)benzamide]
≥ 70%: inhibition at 1 µM (ABL1) | inhibition at 1 µM (ACK1) | inhibition at 1 µM (ARAF) | inhibition at 1 µM (BLK) | inhibition at 1 µM (BRK) | inhibition at 1 µM (c-Src) | inhibition at 1 µM (DDR2) | inhibition at 1 µM (EPHA1) | inhibition at 1 µM (EPHA7) | inhibition at 1 µM (EPHB1) | inhibition at 1 µM (EPHB3) | inhibition at 1 µM (FGFR1) | inhibition at 1 µM (FGFR2) | inhibition at 1 µM (FGFR4) | inhibition at 1 µM (FMS) | inhibition at 1 µM (FYN) | inhibition at 1 µM (HCK) | inhibition at 1 µM (JAK1) | inhibition at 1 µM (KHS) | inhibition at 1 µM (LCK) | inhibition at 1 µM (LYN) | inhibition at 1 µM (LYNB) | inhibition at 1 µM (p38a) | inhibition at 1 µM (p38b) | inhibition at 1 µM (PDGFRb) | inhibition at 1 µM (RAF1) | inhibition at 1 µM (RIPK3) | inhibition at 1 µM (TAOK2) | inhibition at 1 µM (TIE2) | inhibition at 1 µM (YES) | inhibition at 1 µM (YSK4)
< 0.5 µM: GI50 (Ba/F3 (N-Ras G12D))
